Reference: patent US8173387B2, “Method of examining chemical using gene-disrupted strain” (priority 2003, dated 2012)

Assays:
Format in all cases: cell-based, Saccharomyces cerevisiae
[1] = test system: heterozygous diploid DEL000/014 transformed with a plasmid p-YPL171C; assay: promoter assay (GFP reporter), Example 3; conditions: heterozygous diploid DEL000/014, p-YPL171C, W303 background
Description: (§1) In order to prepare a gene-disrupted strain transformation cassette, genes having chemical sensitivity; YPR036W(DEL000), YDL151C(DEL001), YGL026C(DEL003), YHR039C-A(DEL006), YKL080W(DEL007), YLR447C(DEL008), YGR006W(DEL012), YGR105W(DRL013), YJR104C(DEL014), YGL206C(DEL018), YIL036W(DEL019), YKL119C(DEL020), YLR226W(DEL022) and YLR311C(DEL025) in Table 7 were selected, and each gene was replaced with a transformation marker such as kanamycin resistance. As primers for performing PCT amplification, a N-terminal side (ORF(upper)) and a C-terminal side (ORF(lower)) in each ORF were used. A length of a sequence (ORF(upper) and ORF(lower)) of a primer homologues with ORF was 46 or 50 bp.
(§2) A W303 a mating type (ATCC200903) and a W303α mating type (ATCC201238) in which the same gene was gene disruption-manipulated were mated by a mating procedure (Yeast Gene Experimental Manual: Maruzen Co., Ltd., p 83-92) to prepare homozygous diploids. Separately, mating of a W303a mating type, and a non-gene-disrupted W303α type was performed by the similar procedure to prepare heterozygous diploids.
(§3) By such the procedure, homozygous diploids of DEL000, DEL001, DEL003, DEL006, DEL007, DEL008, DEL012, DEL013, DEL014, DEL018, DEL019, DEL020, DEL022 and DEL025 in Table 7 were prepared. In addition, heterozygous diploids in which DEL006, DEL014 and DEL 022 were mated with a non-gene-disrupted strain (hereafter, referred to as DEL006 heterozygous diploid, DEL 014 heterozygous diploid, DEL022 heterozygous diploid) and, further, a heterozygous diploid in which DEL000 and DEL014 were mated (hereafter, referred to as DEL000/014 heterozygous diploid) were prepared.
(§4) Competent cells of W303 ATCC201239 (MATa/MATα leu2-3/leu2-3 leu2-112/leu2-112 trp1-1/trp1-1 ura3-1/ura3-1 his 3-11/his3-11 his3-15/his3-15 ade2-1/ade2-1 can1-100/can1-100) which is a parent strain of gene-disrupted strains, and each of prepared gene-disrupted strains were prepared. The competent cells were transformed using two kind of prepared plasmid for promoter assay, p-YBR072W (in which GFP is connected downstream of a promoter of YBR072W) and p-YPL171C (in which GFP is connected downstream of a promoter of YPL171C).
(§5) The resulting transformant was grown to the steady state by shaking-culturing on a SD medium (adenine, hystidine, triptophan, leucine) at 25° C. The transformant in the steady state was diluted 500-fold with the same medium, shaking-cultured at 25° C. for 15 hours and, after it was confirmed that an absorbance at 600 nm was 0.2 to 0.5 as a logarithmic growth phase, chemicals having different concentrations were loaded. After loading of chemicals, fluorescence of cells which had been cultured for 4 hours was measured using a flow cytometer (FITC filter, EPICS XL-MCL, Bechmancoulter), and this was adopted as an expression amount of GFP (green fluorescence protein) which is a marker gene. A fluorescence intensity of 10000 cells was measured with a flow cytometer by one measurement and an average of fluorescence intensities of all cells was obtained, and was adopted as a measured value. Similarly, a fluorescence intensity of a cell to which a chemical had not been loaded was obtained, and results are shown as difference in a fluorescence intensity.

[2] = test system: homozygous diploid of gene-disrupted strain DEL006 (YHR039C-A) transformed with a plasmid p-YPL171C; assay: promoter assay (GFP reporter), Example 3; conditions: W303 background
Description: as §1, §2, §3, §4, §5

[3] = test system: homozygous diploid of gene-disrupted strain DEL003 (YGL026C) transformed with a plasmid p-YPL171C; assay: promoter assay (GFP reporter), Example 3; conditions: W303 background
Description: as §1, §2, §3, §4, §5

[4] = test system: homozygous diploid of gene-disrupted strain DEL014 (YJR104C) transformed with a plasmid p-YPL171C; assay: promoter assay (GFP reporter), Example 3; conditions: W303 background
Description: as §1, §2, §3, §4, §5

[5] = test system: homozygous diploid of gene-disrupted strain DEL022 (YLR226W) transformed with a plasmid p-YPL171C; assay: promoter assay (GFP reporter), Example 3; conditions: W303 background
Description: as §1, §2, §3, §4, §5

[6] = test system: homozygous diploid of gene-disrupted strain DEL008 (YLR447C) transformed with a plasmid p-YPL171C; assay: promoter assay (GFP reporter), Example 3; conditions: W303 background
Description: as §1, §2, §3, §4, §5

[7] = test system: gene-disrupted strain DEL011 (YGL240W) transformed with a plasmid p-YPL171C; assay: promoter assay (GFP reporter), Example 2; conditions: GFP fluorescence 4 hours after loading, parent strain BY4743
Procedure: (§6) In a gene-disrupted strain, a growing rate becomes small so much, or medium components in which the strain can be grown are different in some cases, depending on a disrupted gene. Then, in the present experiment studying a host cell of a promoter assay method, in view of easy comparison with a control experiment, among gene-disrupted strains obtained as the result of Example 1, a few strains which have sensitivity to many chemicals and are grown by the same procedure as that of a parent strain were selected. Selected gene-disrupted strains are 8 strains of DEL000, DEL002, DEL011, DEL014, DEL016, DEL019, DEL022 and DEL025 in Table 7. Further, as a control, a parent strain, BY4743 was used.
(§7) A competent cell of each of a parent strain of a gene-disrupted strain and selected gene-disrupted strains was prepared. This competent cell was transformed using two kinds of prepared plasmids for promoter assay, p-YBR072W (in which GFP was connected understream of a promoter of YBR072W) and p-YPL171C (in which GFP was connected downstream of a promoter of YPL171C).
as §5, with “(histidine,” for “(adenine, hystidine, triptophan,”, “as” for “as difference in”, “intensity ratio.” for “intensity.”

[8] = test system: gene-disrupted strain DEL014 (YJR104C) transformed with a plasmid p-YBR072W; assay: promoter assay (GFP reporter), Example 2; conditions: GFP fluorescence 4 hours after loading, parent strain BY4743
Procedure: as §6, §7
as §5, with “(histidine,” for “(adenine, hystidine, triptophan,”, “as” for “as difference in”, “intensity ratio.” for “intensity.”

[9] = test system: gene-disrupted strain DEL016 (YCR028C) transformed with a plasmid p-YBR072W; assay: promoter assay (GFP reporter), Example 2; conditions: GFP fluorescence 4 hours after loading, parent strain BY4743
Procedure: as §6, §7
as §5, with “(histidine,” for “(adenine, hystidine, triptophan,”, “as” for “as difference in”, “intensity ratio.” for “intensity.”

[10] = test system: gene-disrupted strain DEL011 (YGL240W) transformed with a plasmid p-YBR072W; assay: promoter assay (GFP reporter), Example 2; conditions: GFP fluorescence 4 hours after loading, parent strain BY4743
Procedure: as §6, §7
as §5, with “(histidine,” for “(adenine, hystidine, triptophan,”, “as” for “as difference in”, “intensity ratio.” for “intensity.”

[11] = test system: gene-disrupted strain DEL019 (YIL036W) transformed with a plasmid p-YBR072W; assay: promoter assay (GFP reporter), Example 2; conditions: strain printed DEL019025, p-YBR072W, GFP fluorescence 4 hours after loading, parent strain BY4743
Procedure: as §6, §7
as §5, with “(histidine,” for “(adenine, hystidine, triptophan,”, “as” for “as difference in”, “intensity ratio.” for “intensity.”

[12] = test system: gene-disrupted strain DEL025 (YLR311C) transformed with a plasmid p-YBR072W; assay: promoter assay (GFP reporter), Example 2; conditions: strain printed DEL, p-YBR072W, GFP fluorescence 4 hours after loading, parent strain BY4743
Procedure: as §6, §7
as §5, with “(histidine,” for “(adenine, hystidine, triptophan,”, “as” for “as difference in”, “intensity ratio.” for “intensity.”

[13] = test system: gene-disrupted strain DEL002 (YDR027C) transformed with a plasmid p-YBR072W; assay: promoter assay (GFP reporter), Example 2; conditions: GFP fluorescence 4 hours after loading, parent strain BY4743
Procedure: as §6, §7
as §5, with “(histidine,” for “(adenine, hystidine, triptophan,”, “as” for “as difference in”, “intensity ratio.” for “intensity.”

[14] = test system: homozygous diploid of gene-disrupted strain DEL020 (YKL119C) transformed with a plasmid p-YPL171C; assay: promoter assay (GFP reporter), Example 3; conditions: DEL0020 homozygous diploid, W303 background
Description: as §1, §2, §3, §4, §5

[15] = test system: homozygous diploid of gene-disrupted strain DEL001 (YDL151C) transformed with a plasmid p-YPL171C; assay: promoter assay (GFP reporter), Example 3; conditions: W303 background
Description: as §1, §2, §3, §4, §5

[16] = test system: heterozygous diploid of gene-disrupted strain DEL006 (YHR039C-A) transformed with a plasmid p-YPL171C; assay: promoter assay (GFP reporter), Example 3; conditions: W303 background
Description: as §1, §2, §3, §4, §5

[17] = test system: homozygous diploid of gene-disrupted strain DEL007 (YKL080W) transformed with a plasmid p-YPL171C; assay: promoter assay (GFP reporter), Example 3; conditions: W303 background
Description: as §1, §2, §3, §4, §5

[18] = test system: gene-disrupted strain DEL016 (YCR028C) transformed with a plasmid p-YPL171C; assay: promoter assay (GFP reporter), Example 2; conditions: GFP fluorescence 4 hours after loading, parent strain BY4743
Procedure: as §6, §7
as §5, with “(histidine,” for “(adenine, hystidine, triptophan,”, “as” for “as difference in”, “intensity ratio.” for “intensity.”

## O=[As][O-].[Na+] [sodium metaarsenite]
[1]
  concentration at which sensitivity is shown, as fraction of a concentration of a gene-non-disrupted strain: 1/30
[2]
  concentration at which sensitivity is shown, as fraction of a concentration of a gene-non-disrupted strain: 1/30
[3]
  concentration at which sensitivity is shown, as fraction of a concentration of a gene-non-disrupted strain: 1/3
[4]
  concentration at which sensitivity is shown, as fraction of a concentration of a gene-non-disrupted strain: 1/30
[5]
  concentration at which sensitivity is shown, as fraction of a concentration of a gene-non-disrupted strain: 1/3
[6]
  concentration at which sensitivity is shown, as fraction of a concentration of a gene-non-disrupted strain: 1/3
[7]
  concentration at which the strain responded, as fraction of a concentration of a parent strain: 1/3
[8]
  concentration at which the strain responded, as fraction of a concentration of a parent strain: 1/3000
[9]
  concentration at which the strain responded, as fraction of a concentration of a parent strain: 1/3
[10]
  concentration at which the strain responded, as fraction of a concentration of a parent strain: 1/10

## [Cl][Cd][Cl] [cadmium chloride]
[11]
  concentration at which the strain responded, as fraction of a concentration of a parent strain: 1/3
[12]
  concentration at which the strain responded, as fraction of a concentration of a parent strain: 1/3
[13]
  concentration at which the strain responded, as fraction of a concentration of a parent strain: 1/3
[9]
  concentration at which the strain responded, as fraction of a concentration of a parent strain: 1/3
[10]
  concentration at which the strain responded, as fraction of a concentration of a parent strain: 1/3

## CN(C)C(=S)SSC(=S)N(C)C [thiuram]
[14]
  concentration at which sensitivity is shown, as fraction of a concentration of a gene-non-disrupted strain: 1/3
[15]
  concentration at which sensitivity is shown, as fraction of a concentration of a gene-non-disrupted strain: 1/3
[16]
  concentration at which sensitivity is shown, as fraction of a concentration of a gene-non-disrupted strain: 1/10
[2]
  concentration at which sensitivity is shown, as fraction of a concentration of a gene-non-disrupted strain: 1/10
[17]
  concentration at which sensitivity is shown, as fraction of a concentration of a gene-non-disrupted strain: 1/1000
[5]
  concentration at which sensitivity is shown, as fraction of a concentration of a gene-non-disrupted strain: 1/1000

## [Cl][Hg][Cl] [mercuric chloride]
[18]
  concentration at which the strain responded, as fraction of a concentration of a parent strain: 1/3
[7]
  concentration at which the strain responded, as fraction of a concentration of a parent strain: 1/10
